Patent US12371454B2, “Cyclic peptide compound having Kras inhibitory action” (priority 2019, dated 2025)
Starred links: 1 amine or outer side, 2 acyl side, 3 side chain; linkers in the order of their positions; H or OH if unused. Positions of bridges follow the written chain, without caps; N, C: chain ends. Non-standard residues stand in square brackets, D forms with d. Residues, ends and D or L forms follow the SMILES beside them. *: point of attachment. hPhe(3-Cl-4-CF3) = N[C@@H](CCc1ccc(C(F)(F)F)c(Cl)c1)C(=O)O; hPhe(3-F,4-CF3) = N[C@@H](CCc1ccc(C(F)(F)F)c(F)c1)C(=O)O; X12 = CN([C@@H](Cc1ccc(C(F)(F)F)nc1)C(=O)[*:2])[*:1]; NMePhe(4-Me) = CN[C@@H](Cc1ccc(C)cc1)C(=O)O; X54 = O=C([C@H](Cc1cccc(Br)c1F)N[*:1])[*:2]; NMeGly(cPent) = CN[C@H](C(=O)O)C1CCCC1; Phe(2-F) = N[C@@H](Cc1ccccc1F)C(=O)O; NMeY = CN[C@@H](Cc1ccc(O)cc1)C(=O)O; NMeCha = CN[C@@H](CC1CCCCC1)C(=O)O; NMeChg = CN[C@H](C(=O)O)C1CCCCC1; NMeD = CN[C@@H](CC(=O)O)C(=O)O; dNMeD = CN[C@H](CC(=O)O)C(=O)O; CH2CONHtBu = CC(C)(C)NC(=O)C*; NMeL = CN[C@@H](CC(C)C)C(=O)O; NMeV = CN[C@H](C(=O)O)C(C)C; d(β3hA) = C[C@@H](N)CC(=O)O; NMeAbu = CC[C@H](NC)C(=O)O; NMeS = CN[C@@H](CO)C(=O)O; NMeA = CN[C@@H](C)C(=O)O; NMeAib = CNC(C)(C)C(=O)O; Nle = CCCC[C@H](N)C(=O)O; Piperidide = C1CCN(*)CC1; Pyrrolidide = C1CCN(*)C1; Ac5c = NC1(C(=O)O)CCCC1; Aze = O=C(O)[C@@H]1CCN1; Aib = CC(C)(N)C(=O)O; Isopentyl = CC(C)CC*; Sar = CNCC(=O)O

Each molecule was assayed against T1, Kras and SOS1 (biotin-tagged human Kras loaded with GDP, His-tagged human SOS1) (Homo sapiens, UniProt P01116, G12D) (assay: Protein-protein interaction inhibition between Kras and SOS1 (KrasGl2D-SOS PPI) using AlphaScreen). Settings: AlphaScreen; biotin-tagged human Kras loaded with GDP, His-tagged human SOS1; read-out: KRAS G12D-SOS PPI IC50.
T1 construct: made in house; host or cells: E. coli (stated for Kras only)
Type: binding
Summary of the method: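 Binding between SOS1 and Kras is detected as bead-proximity luminescence: illuminate Ni-conjugated donors (680 nm), collect 520-620 nm emission from streptavidin-conjugated acceptors; Kras carries biotin and GDP loaded after purification, SOS1 carries a His tag.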

T1 sequence (P01116 1-188 isoform P01116-2 G12D): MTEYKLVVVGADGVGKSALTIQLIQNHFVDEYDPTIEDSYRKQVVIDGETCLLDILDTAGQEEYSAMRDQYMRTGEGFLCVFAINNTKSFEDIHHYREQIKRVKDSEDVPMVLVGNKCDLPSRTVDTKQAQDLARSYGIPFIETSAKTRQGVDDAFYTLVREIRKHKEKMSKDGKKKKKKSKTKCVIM

SMILES	IC50 [nM]
CC[C@H](C)[C@@H]1NC(=O)[C@H](C)N(C)C(=O)C[C@@H](C)NC(=O)[C@H](C2CCCC2)N(C)C(=O)C2(CCCC2)NC(=O)[C@@H]2CCCN2C(=O)[C@H](CCc2ccc(C(F)(F)F)c(Cl)c2)NC(=O)[C@H]2CCCN2C(=O)[C@H](Cc2ccc(C)cc2)N(C)C(=O)[C@@H]2CCN2C(=O)CN(C)C1=O [Compound 1494] (cyclo([Ac5c][NMeGly(cPent)][d(β3hA)][NMeA]I[Sar][Aze][NMePhe(4-Me)][dP][hPhe(3-Cl-4-CF3)]P))	140
CCCC[C@@H]1NC(=O)[C@H](Cc2cccc(Br)c2F)NC(=O)CN(C)C(=O)[C@H](Cc2ccc(OC)cc2)N(C)C(=O)[C@@H]2CCN2C(=O)[C@H](C)N(C)C(=O)[C@H]([C@@H](C)CC)NC(=O)[C@H](CC)N(C)C(=O)C[C@@H](C(=O)N2CCCCC2)N(C)C(=O)[C@H](CC(C)C)NC(=O)C(C)(C)N(C)C1=O [Compound 1304] ([NMeAbu]I[NMeA][Aze][NMeY](Me)[Sar][X54][Nle][NMeAib]L[NMeD]-Piperidide; lactam N-11)	85
CCCC[C@@H]1NC(=O)[C@H](Cc2ccccc2F)NC(=O)CN(C)C(=O)[C@H](Cc2ccc(OC)cc2)N(C)C(=O)CN(C)C(=O)CN(C)C(=O)[C@H]([C@@H](C)CC)NC(=O)[C@H](CC(C)C)N(C)C(=O)C[C@@H](C(=O)N2CCCCC2)N(C)C(=O)[C@H](CC(C)C)NC(=O)[C@H](Cc2ccc(OC)cc2)N(C)C1=O [Compound 681] ([NMeL]I[Sar][Sar][NMeY](Me)[Sar][Phe(2-F)][Nle][NMeY](Me)L[NMeD]-Piperidide; lactam N-11)	5.9
CC[C@H](C)[C@@H]1NC(=O)[C@H](CC(C)C)N(C)C(=O)C[C@@H](C(=O)N2CCCCC2)N(C)C(=O)[C@H](C2CCCCC2)N(C)C(=O)C2(CCCC2)NC(=O)[C@@H]2CCCN2C(=O)[C@H](CCc2ccc(C(F)(F)F)c(Cl)c2)NC(=O)CN(C)C(=O)[C@H](CC2CCCCC2)N(C)C(=O)[C@H](C)N(C)C(=O)CN(C)C1=O [Compound 1186] ([NMeL]I[Sar][NMeA][NMeCha][Sar][hPhe(3-Cl-4-CF3)]P[Ac5c][NMeChg][NMeD]-Piperidide; lactam N-11)	8.6
CC[C@H](C)[C@@H]1NC(=O)[C@H](CC(C)C)N(C)C(=O)C[C@@H](C(=O)N2CCCCC2)N(C)C(=O)[C@H](CC(C)C)N(C)C(=O)C(C)(C)NC(=O)[C@H](COCC(=O)NC(C)(C)C)N(C)C(=O)[C@H](CCc2ccc(C(F)(F)F)c(Cl)c2)NC(=O)CN(C)C(=O)[C@H](COCCC(C)C)N(C)C(=O)CN(C)C(=O)CN(C)C1=O [Compound 1480] ([NMeL]I[Sar][Sar][NMeS](Isopentyl)[Sar][hPhe(3-Cl-4-CF3)][NMeS](CH2CONHtBu)[Aib][NMeL][NMeD]-Piperidide; lactam N-11)	8.9
CC[C@H](C)[C@@H]1NC(=O)[C@H](CC(C)C)N(C)C(=O)C[C@H](C(=O)N2CCCC2)N(C)C(=O)[C@H](C2CCCCC2)N(C)C(=O)C2(CCCC2)NC(=O)[C@@H]2CCCN2C(=O)[C@H](CCc2ccc(C(F)(F)F)c(Cl)c2)NC(=O)CN(C)C(=O)[C@H](CC2CCCCC2)N(C)C(=O)CN(C)C(=O)CN(C)C1=O [Compound 1781] ([NMeL]I[Sar][Sar][NMeCha][Sar][hPhe(3-Cl-4-CF3)]P[Ac5c][NMeChg][dNMeD]-Pyrrolidide; lactam N-11)	49
CCCC[C@@H]1NC(=O)[C@H](CC(C)C)N(C)C(=O)C[C@@H](C)NC(=O)[C@H](CC(C)C)N(C)C(=O)C2(CCCC2)NC(=O)[C@@H]2CCCN2C(=O)[C@H](CCc2ccc(C(F)(F)F)c(F)c2)NC(=O)CN(C)C(=O)[C@H](CC2CCCCC2)N(C)C(=O)CN(C)C(=O)CN(C)C1=O [Compound 1490] (cyclo([Ac5c][NMeL][d(β3hA)][NMeL][Nle][Sar][Sar][NMeCha][Sar][hPhe(3-F,4-CF3)]P))	320
CC[C@H](C)[C@@H]1NC(=O)[C@H](CC(C)C)N(C)C(=O)C[C@@H](C(=O)N2CCCCC2)N(C)C(=O)[C@H](C2CCCCC2)N(C)C(=O)C2(CCCC2)NC(=O)[C@H](Cc2ccc(C(F)(F)F)nc2)N(C)C(=O)[C@H](CCc2ccc(C(F)(F)F)c(Cl)c2)NC(=O)CN(C)C(=O)[C@H](CC2CCCCC2)N(C)C(=O)[C@@H]2CCN2C(=O)[C@H](C)N(C)C1=O [Compound 479] ([NMeL]I[NMeA][Aze][NMeCha][Sar][hPhe(3-Cl-4-CF3)][X12][Ac5c][NMeChg][NMeD]-Piperidide; lactam N-11)	300
CC[C@H](C)[C@@H]1NC(=O)[C@H](C)N(C)C(=O)C[C@@H](C(=O)N2CCCCC2)N(C)C(=O)[C@H](C(C)C)N(C)C(=O)C2(CCCC2)NC(=O)[C@@H]2CCCN2C(=O)[C@H](CCc2ccc(C(F)(F)F)c(Cl)c2)NC(=O)[C@H]2CCCN2C(=O)[C@H](CC2CCCCC2)N(C)C(=O)[C@@H]2CCN2C(=O)[C@H](C)N(C)C1=O [Compound 293] ([NMeA]I[NMeA][Aze][NMeCha][dP][hPhe(3-Cl-4-CF3)]P[Ac5c][NMeV][NMeD]-Piperidide; lactam N-11)	120
